# Source: patent US20240374609A1, “NITROSAMINE IMPURITY, VARENICLINE PHARMACEUTICAL COMPOSITION CAPABLE OF REDUCING GENERATION OF NITROSAMINE IMPURITIES AND PREPARATION AND USE THEREOF” (VIWIT PHARMACEUTICALCO., LTD., priority 2021, published 2024)
# Where two headings read alike, the source gives them in different places.
# How the values were obtained:
# [1] = system: Salmonella Typhimurium TA98; experiment: Ames test, plate incorporation method, TA98; format: cell-based
# Experimental: (§1) Salmonella Typhimurium TA97a, TA98, TA100, TA102, and TA1535 from MOLT OX, USA, were purchased from Shanghai Bioplus Biotech.
# (§2) Rat liver S9 from Shanghai Bioplus Biotech. Co., Ltd.
# (§3) The experiments were performed using the plate incorporation method.
# (§4) Dose selection: The experiments were performed using 5 mg, 2.5 mg, 1.25 mg, 0.625 mg, 0.3125 mg, and 0.15625 mg per dish.
# (§5) 0.1 ml of frozen bacterial solutions TA97a, TA98, TA100, TA102 and TA1535 were inoculated into the 10 ml nutrient broth mediums respectively, and cultured at 37° C. (100/min) for 10 h with shaking (100 times/min). 2.0 ml of top layer medium containing 0.5 mmol/L histidine −0.5 mmol/L biotin was dispensed into test tubes, sterilized by 0.103 MPa for 20 min, and kept in a water bath at 50° C. Then, 0.1 ml of the test substance solution, 0.5 ml of the S9 mixture (when metabolic activation was required) and 0.1 ml of the bacterial solution were added into each tube successively, mixed sufficiently, and poured into the bottom layer agar plates quickly. Then, the plates were turned to distribute even. After being placed horizontally for condensation and solidification, the plates were inverted and incubated in an incubator at 37° C. for 48 h, and the number of reverse mutation colonies per dish was counted. Three parallel plates of each dose were made, containing the spontaneous reverse mutation group, the solvent control group and the positive control group.
# (§6) The data were expressed as means±standards deviation (x±s), and SPSS 19.0 was used for calculation of data analysis.
# (§7) If the test substance tested by the above test strain is negative both with and without S9, then the test substance is determined to be mutagenic negative.
# Salmonella typhimurium = experiment: Ames test, overall result determination; format: cell-based; conditions: in the presence and absence of metabolic activation system
# Experimental: Whether nitrosamine impurity compound P08 is genotoxic (capable of mutagenicity or carcinogenesis) was detected.
# as §7
# [2] = system: Salmonella Typhimurium TA97a; experiment: Ames test, plate incorporation method, TA97a; format: cell-based
# Experimental: as §1, §2, §3, §4, §5, §6, §7
# Tetranychus cinnabarinus = experiment: Leaf-disc spraying method, insecticidal activity; format: in vivo; conditions: 500 mg/L, spray 2.5 mL, investigated after 24 h, blank control 0%, read-out: mortality rate
# Experimental: The bactericidal or insecticidal activity of the nitrosamine impurity compound P08 was determined according to the existing technical standards or specifications (e.g., Chinese agricultural industry standard NY/T 1156.4-2006, pesticides guidelines for laboratory bioactivity tests, bactericide, part 4: potted plant test for fungicide control of powdery mildew on wheat; Chinese agricultural industry standard NY/T 1156.5-2006, pesticides guidelines for laboratory bioactivity tests, bactericide, part 5: detached leaf test for fungicide inhibition of Rhizoctonia solani on faba bean; Chinese agricultural industry standard […], pesticides guidelines for laboratory bioactivity tests, insecticide, part 6: the immersion test for insecticide activity; Chinese agricultural industry standard NY/T 1154.9-2008, pesticides guidelines for laboratory bioactivity tests, insecticide, part 9: spraying method).
# According to the Chinese agricultural industry standard NYT 1154.13-2008, pesticides guidelines for laboratory bioactivity tests, insecticide, part 13: leaf-disc spraying method, the Tetranychus cinnabarinus were inoculated on a leaf-disc of faba bean as the biological test materials. […]
# [3] = system: Salmonella Typhimurium TA1535; format: cell-based
# Experimental: (§8) Salmonella Typhimurium TA97a, TA98, TA100, TA102, and TA1535 from MOLT OX, USA, were purchased from Shanghai Bioplus Biotech. Co., Ltd. The test was carried out using Salmonella typhimurium strains that were identified as meeting the requirements.
# as §2, §3, §4
# (§9) Test substance preparation: nitrosamine impurity compound P08 was prepared to a solution of 50 mg/ml with dimethyl-sulfoxide, and diluted with dimethyl-sulfoxide to give the solutions of 25 mg/ml, 12.5 mg/ml, 6.25 mg/ml, 3.125 mg/ml, and 1.5625 mg/ml successively.
# as §5, §6, §7
# [4] = system: Salmonella Typhimurium TA102; experiment: Ames test, plate incorporation method, TA102; format: cell-based
# Experimental: as §8, §2, §3, §4, §9, §5, §6, §7
# [5] = system: Salmonella Typhimurium TA100; experiment: Ames test, plate incorporation method, TA100; format: cell-based
# Experimental: as §1, §2, §3, §4, §5, §6, §7
compound,measurement,setting,value
O=NN1CC2CC(C1)c1cc3nccnc3cc12 [P08],number of reverse mutation colonies per dish (x ± s),"[1]; TA98, +S9, 156.25 μg/dish",33 ± 6
same,number of reverse mutation colonies per dish (x ± s),"[1]; TA98, +S9, 312.5 μg/dish",34 ± 1
same,number of reverse mutation colonies per dish (x ± s),"[1]; TA98, +S9, 625 μg/dish",35 ± 2
same,number of reverse mutation colonies per dish (x ± s),"[1]; TA98, +S9, 1250 μg/dish",41 ± 6
same,number of reverse mutation colonies per dish (x ± s),"[1]; TA98, +S9, 2500 μg/dish",59 ± 4
same,number of reverse mutation colonies per dish (x ± s),"[1]; TA98, +S9, 5000 μg/dish",53 ± 6
same,number of colonies relative to that of the solvent control,"[1]; TA98, adding S9, 2500 μg/dish",more than twice
same,number of reverse mutation colonies per dish (x ± s),"[1]; TA98, −S9, 156.25 μg/dish",29 ± 2
same,number of reverse mutation colonies per dish (x ± s),"[1]; TA98, −S9, 312.5 μg/dish",27 ± 3
same,number of reverse mutation colonies per dish (x ± s),"[1]; TA98, −S9, 625 μg/dish",28 ± 2
same,number of reverse mutation colonies per dish (x ± s),"[1]; TA98, −S9, 1250 μg/dish",30 ± 3
same,number of reverse mutation colonies per dish (x ± s),"[1]; TA98, −S9, 2500 μg/dish",31 ± 3
same,number of reverse mutation colonies per dish (x ± s),"[1]; TA98, −S9, 5000 μg/dish",32 ± 2
same,mutagenicity determination (Ames test),Salmonella typhimurium,mutagenic positive
same,number of reverse mutation colonies per dish (x ± s),"[2]; +S9, 156.25 μg/dish",209 ± 16
same,number of reverse mutation colonies per dish (x ± s),"[2]; +S9, 312.5 μg/dish",248 ± 13
same,number of reverse mutation colonies per dish (x ± s),"[2]; +S9, 625 μg/dish",242 ± 17
same,number of reverse mutation colonies per dish (x ± s),"[2]; +S9, 1250 μg/dish",279 ± 5
same,number of reverse mutation colonies per dish (x ± s),"[2]; +S9, 2500 μg/dish",297 ± 8
same,number of reverse mutation colonies per dish (x ± s),"[2]; +S9, 5000 μg/dish",310 ± 19
same,number of reverse mutation colonies per dish (x ± s),"[2]; −S9, 156.25 μg/dish",158 ± 11
same,number of reverse mutation colonies per dish (x ± s),"[2]; −S9, 312.5 μg/dish",175 ± 6
same,number of reverse mutation colonies per dish (x ± s),"[2]; −S9, 625 μg/dish",175 ± 12
same,number of reverse mutation colonies per dish (x ± s),"[2]; −S9, 1250 μg/dish",160 ± 15
same,number of reverse mutation colonies per dish (x ± s),"[2]; −S9, 2500 μg/dish",165 ± 10
same,number of reverse mutation colonies per dish (x ± s),"[2]; −S9, 5000 μg/dish",159 ± 5
same,mortality at 500 µg/mL,Tetranychus cinnabarinus,19.6%
same,number of reverse mutation colonies per dish (x ± s),"[3]; TA1535, +S9, 156.25 μg/dish",21 ± 0
same,number of reverse mutation colonies per dish (x ± s),"[3]; TA1535, +S9, 312.5 μg/dish",20 ± 3
same,number of reverse mutation colonies per dish (x ± s),"[3]; TA1535, +S9, 625 μg/dish",35 ± 7
same,number of reverse mutation colonies per dish (x ± s),"[3]; TA1535, +S9, 1250 μg/dish",34 ± 3
same,number of reverse mutation colonies per dish (x ± s),"[3]; TA1535, +S9, 2500 μg/dish",38 ± 5
same,number of reverse mutation colonies per dish (x ± s),"[3]; TA1535, +S9, 5000 μg/dish",46 ± 6
same,number of colonies relative to that of the solvent control,"[3]; TA1535, no S9, 625 μg/dish",more than twice
same,number of colonies relative to that of the solvent control,"[3]; TA1535, with S9, 5000, 2500, 1250 and 625 μg/dish, dose-response relationship",more than twice
same,number of reverse mutation colonies per dish (x ± s),"[3]; TA1535, −S9, 156.25 μg/dish",23 ± 2
same,number of reverse mutation colonies per dish (x ± s),"[3]; TA1535, −S9, 312.5 μg/dish",36 ± 1
same,number of reverse mutation colonies per dish (x ± s),"[3]; TA1535, −S9, 625 μg/dish",42 ± 4
same,number of reverse mutation colonies per dish (x ± s),"[3]; TA1535, −S9, 1250 μg/dish",18 ± 2
same,number of reverse mutation colonies per dish (x ± s),"[3]; TA1535, −S9, 2500 μg/dish",28 ± 2
same,number of reverse mutation colonies per dish (x ± s),"[3]; TA1535, −S9, 5000 μg/dish",20 ± 2
same,number of reverse mutation colonies per dish (x ± s),"[4]; TA102, +S9, 156.25 μg/dish",249 ± 13
same,number of reverse mutation colonies per dish (x ± s),"[4]; TA102, +S9, 312.5 μg/dish",253 ± 24
same,number of reverse mutation colonies per dish (x ± s),"[4]; TA102, +S9, 625 μg/dish",296 ± 21
same,number of reverse mutation colonies per dish (x ± s),"[4]; TA102, +S9, 1250 μg/dish",272 ± 17
same,number of reverse mutation colonies per dish (x ± s),"[4]; TA102, +S9, 2500 μg/dish",283 ± 11
same,number of reverse mutation colonies per dish (x ± s),"[4]; TA102, +S9, 5000 μg/dish",320 ± 15
same,number of reverse mutation colonies per dish (x ± s),"[4]; TA102, −S9, 156.25 μg/dish",208 ± 13
same,number of reverse mutation colonies per dish (x ± s),"[4]; TA102, −S9, 312.5 μg/dish",237 ± 6
same,number of reverse mutation colonies per dish (x ± s),"[4]; TA102, −S9, 625 μg/dish",236 ± 20
same,number of reverse mutation colonies per dish (x ± s),"[4]; TA102, −S9, 1250 μg/dish",245 ± 4
same,number of reverse mutation colonies per dish (x ± s),"[4]; TA102, −S9, 2500 μg/dish",219 ± 11
same,number of reverse mutation colonies per dish (x ± s),"[4]; TA102, −S9, 5000 μg/dish",211 ± 8
same,number of reverse mutation colonies per dish (x ± s),"[5]; TA100, +S9, 156.25 μg/dish",225 ± 9
same,number of reverse mutation colonies per dish (x ± s),"[5]; TA100, +S9, 312.5 μg/dish",234 ± 6
same,number of reverse mutation colonies per dish (x ± s),"[5]; TA100, +S9, 625 μg/dish",271 ± 11
same,number of reverse mutation colonies per dish (x ± s),"[5]; TA100, +S9, 1250 μg/dish",287 ± 13
same,number of reverse mutation colonies per dish (x ± s),"[5]; TA100, +S9, 2500 μg/dish",364 ± 19
same,number of reverse mutation colonies per dish (x ± s),"[5]; TA100, +S9, 5000 μg/dish",378 ± 18
same,number of reverse mutation colonies per dish (x ± s),"[5]; TA100, −S9, 156.25 μg/dish",218 ± 20
same,number of reverse mutation colonies per dish (x ± s),"[5]; TA100, −S9, 312.5 μg/dish",234 ± 31
same,number of reverse mutation colonies per dish (x ± s),"[5]; TA100, −S9, 625 μg/dish",224 ± 3
same,number of reverse mutation colonies per dish (x ± s),"[5]; TA100, −S9, 1250 μg/dish",220 ± 10
same,number of reverse mutation colonies per dish (x ± s),"[5]; TA100, −S9, 2500 μg/dish",193 ± 25
same,number of reverse mutation colonies per dish (x ± s),"[5]; TA100, −S9, 5000 μg/dish",206 ± 25
